According to ChEMBL document CHEMBL1145498, “A systematic interaction map of validated kinase inhibitors with Ser/Thr kinases” (Proc Natl Acad Sci U S A, 2007):

Experiments:
[1] = target: T1, Serine/threonine-protein kinase VRK1 (Homo sapiens) (UniProt Q99986)
T1 sequence (whole entry): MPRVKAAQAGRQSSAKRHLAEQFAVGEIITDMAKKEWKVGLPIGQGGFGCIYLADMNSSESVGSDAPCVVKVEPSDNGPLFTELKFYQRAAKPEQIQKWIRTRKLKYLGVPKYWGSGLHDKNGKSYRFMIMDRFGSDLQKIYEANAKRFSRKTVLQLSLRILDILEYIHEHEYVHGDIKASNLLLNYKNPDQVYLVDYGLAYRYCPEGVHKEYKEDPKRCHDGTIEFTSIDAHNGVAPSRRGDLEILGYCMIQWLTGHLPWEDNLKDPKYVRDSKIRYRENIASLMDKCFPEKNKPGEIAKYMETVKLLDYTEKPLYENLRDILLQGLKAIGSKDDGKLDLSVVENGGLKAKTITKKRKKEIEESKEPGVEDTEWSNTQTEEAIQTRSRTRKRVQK

[2] = target: T2, Serine/threonine-protein kinase PLK4 (Homo sapiens) (UniProt O00444)
T2 sequence (whole entry): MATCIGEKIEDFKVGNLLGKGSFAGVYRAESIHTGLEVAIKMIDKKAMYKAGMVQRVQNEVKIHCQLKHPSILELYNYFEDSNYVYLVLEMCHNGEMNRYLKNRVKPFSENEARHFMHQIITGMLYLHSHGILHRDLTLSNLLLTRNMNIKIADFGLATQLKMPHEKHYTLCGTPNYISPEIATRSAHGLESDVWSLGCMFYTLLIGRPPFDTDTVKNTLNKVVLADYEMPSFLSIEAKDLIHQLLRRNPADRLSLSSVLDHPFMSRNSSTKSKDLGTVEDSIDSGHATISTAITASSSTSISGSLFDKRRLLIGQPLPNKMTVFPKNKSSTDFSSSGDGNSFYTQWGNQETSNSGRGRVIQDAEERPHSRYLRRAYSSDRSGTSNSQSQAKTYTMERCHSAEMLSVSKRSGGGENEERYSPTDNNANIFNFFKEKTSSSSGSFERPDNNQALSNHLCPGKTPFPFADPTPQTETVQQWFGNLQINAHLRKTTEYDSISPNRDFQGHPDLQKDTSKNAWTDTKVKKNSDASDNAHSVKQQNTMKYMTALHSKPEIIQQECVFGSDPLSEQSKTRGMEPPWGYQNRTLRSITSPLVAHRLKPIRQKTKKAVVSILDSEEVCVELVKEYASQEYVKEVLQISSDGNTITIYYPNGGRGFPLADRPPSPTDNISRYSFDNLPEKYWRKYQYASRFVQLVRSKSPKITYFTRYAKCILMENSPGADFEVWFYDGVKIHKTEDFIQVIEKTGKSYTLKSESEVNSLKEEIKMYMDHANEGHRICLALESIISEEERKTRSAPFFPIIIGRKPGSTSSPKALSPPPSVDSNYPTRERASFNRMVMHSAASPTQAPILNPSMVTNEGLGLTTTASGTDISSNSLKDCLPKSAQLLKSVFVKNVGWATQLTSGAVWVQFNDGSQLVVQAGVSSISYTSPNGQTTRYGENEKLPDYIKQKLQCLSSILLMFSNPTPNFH

[3] = target: T3, 3-phosphoinositide-dependent protein kinase 1 (Homo sapiens) (UniProt O15530)
T3 sequence (whole entry): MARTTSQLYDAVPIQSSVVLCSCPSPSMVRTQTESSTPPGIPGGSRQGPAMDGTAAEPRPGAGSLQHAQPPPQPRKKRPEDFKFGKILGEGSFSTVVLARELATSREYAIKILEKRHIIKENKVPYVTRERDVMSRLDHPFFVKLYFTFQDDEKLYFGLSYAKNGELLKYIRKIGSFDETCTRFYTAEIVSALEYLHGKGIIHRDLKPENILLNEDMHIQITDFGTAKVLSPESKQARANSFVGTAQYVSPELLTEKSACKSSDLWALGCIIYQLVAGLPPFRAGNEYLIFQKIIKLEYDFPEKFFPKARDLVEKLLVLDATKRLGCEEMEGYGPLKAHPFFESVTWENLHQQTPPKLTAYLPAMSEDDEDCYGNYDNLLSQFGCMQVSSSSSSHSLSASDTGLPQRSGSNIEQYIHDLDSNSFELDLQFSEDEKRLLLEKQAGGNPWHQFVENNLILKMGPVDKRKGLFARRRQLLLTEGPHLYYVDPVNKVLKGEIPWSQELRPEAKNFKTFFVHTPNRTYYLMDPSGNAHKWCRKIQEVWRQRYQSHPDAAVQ

[4] = target: T4, Serine/threonine-protein kinase 17A (Homo sapiens) (UniProt Q9UEE5)
T4 sequence (whole entry): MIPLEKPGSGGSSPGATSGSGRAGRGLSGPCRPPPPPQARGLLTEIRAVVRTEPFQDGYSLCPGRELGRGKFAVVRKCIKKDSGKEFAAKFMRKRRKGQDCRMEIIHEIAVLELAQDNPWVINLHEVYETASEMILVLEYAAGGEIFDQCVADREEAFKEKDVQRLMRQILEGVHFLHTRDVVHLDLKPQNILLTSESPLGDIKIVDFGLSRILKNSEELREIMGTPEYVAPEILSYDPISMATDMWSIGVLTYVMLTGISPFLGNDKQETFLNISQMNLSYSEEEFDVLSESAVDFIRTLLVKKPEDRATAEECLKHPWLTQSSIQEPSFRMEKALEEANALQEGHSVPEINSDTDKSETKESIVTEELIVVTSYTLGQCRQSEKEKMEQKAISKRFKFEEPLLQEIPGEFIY

[5] = target: Serine/threonine-protein kinase 25 (Homo sapiens) (UniProt O00506)
[6] = target: Calcium/calmodulin-dependent protein kinase type II subunit delta (Homo sapiens) (UniProt Q13557)
[7] = target: Calcium/calmodulin-dependent protein kinase type II subunit gamma (Homo sapiens) (UniProt Q13555)
Calcium/calmodulin-dependent protein kinase type II subunit gamma (Homo sapiens), sequence (Q13555 whole entry): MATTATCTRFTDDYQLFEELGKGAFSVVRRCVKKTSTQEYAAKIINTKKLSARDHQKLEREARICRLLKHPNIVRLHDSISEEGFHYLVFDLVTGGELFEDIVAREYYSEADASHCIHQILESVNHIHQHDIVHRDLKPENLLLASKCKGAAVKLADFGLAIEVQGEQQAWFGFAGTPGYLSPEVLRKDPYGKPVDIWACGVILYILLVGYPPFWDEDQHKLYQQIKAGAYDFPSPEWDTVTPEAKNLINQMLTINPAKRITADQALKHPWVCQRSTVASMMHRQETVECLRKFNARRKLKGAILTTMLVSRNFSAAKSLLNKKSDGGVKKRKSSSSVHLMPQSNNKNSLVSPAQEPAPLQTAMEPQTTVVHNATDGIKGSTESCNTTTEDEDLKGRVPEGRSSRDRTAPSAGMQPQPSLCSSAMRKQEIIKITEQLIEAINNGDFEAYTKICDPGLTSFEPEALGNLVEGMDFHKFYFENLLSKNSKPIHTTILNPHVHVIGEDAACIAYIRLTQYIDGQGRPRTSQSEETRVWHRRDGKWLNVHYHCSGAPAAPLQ

Serine/threonine-protein kinase 25 (Homo sapiens), sequence (O00506 whole entry, looked up): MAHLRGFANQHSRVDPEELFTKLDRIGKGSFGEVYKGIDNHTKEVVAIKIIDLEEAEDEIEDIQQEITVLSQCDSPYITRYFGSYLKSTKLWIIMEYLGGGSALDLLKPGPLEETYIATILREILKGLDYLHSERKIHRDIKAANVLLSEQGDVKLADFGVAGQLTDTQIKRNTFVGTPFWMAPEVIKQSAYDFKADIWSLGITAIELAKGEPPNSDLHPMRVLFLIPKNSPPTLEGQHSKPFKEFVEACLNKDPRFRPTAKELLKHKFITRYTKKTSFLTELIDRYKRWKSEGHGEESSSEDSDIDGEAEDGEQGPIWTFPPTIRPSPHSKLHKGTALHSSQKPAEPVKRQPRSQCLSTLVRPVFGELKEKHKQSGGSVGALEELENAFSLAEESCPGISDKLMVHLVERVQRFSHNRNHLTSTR
Calcium/calmodulin-dependent protein kinase type II subunit delta (Homo sapiens), sequence (Q13557 whole entry): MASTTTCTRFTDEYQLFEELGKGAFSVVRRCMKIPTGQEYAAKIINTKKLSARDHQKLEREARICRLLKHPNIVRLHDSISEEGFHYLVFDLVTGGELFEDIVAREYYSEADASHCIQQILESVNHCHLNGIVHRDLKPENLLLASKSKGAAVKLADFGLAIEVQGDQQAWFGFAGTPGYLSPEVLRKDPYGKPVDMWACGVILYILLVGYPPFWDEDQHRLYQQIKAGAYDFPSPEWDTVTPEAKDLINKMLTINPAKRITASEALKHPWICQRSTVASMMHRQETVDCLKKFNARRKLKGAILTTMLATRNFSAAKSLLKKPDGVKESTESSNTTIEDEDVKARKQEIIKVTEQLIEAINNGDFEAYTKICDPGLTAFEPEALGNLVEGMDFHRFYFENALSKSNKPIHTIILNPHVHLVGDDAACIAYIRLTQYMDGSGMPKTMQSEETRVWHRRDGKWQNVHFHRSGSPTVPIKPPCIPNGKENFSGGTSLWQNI

| Structure (SMILES) | ΔTm [1] [°C] | ΔTm [2] [°C] | ΔTm [3] [°C] | ΔTm [4] [°C] | ΔTm [5] [°C] | ΔTm [6] [°C] | ΔTm [7] [°C] |
| --- | --- | --- | --- | --- | --- | --- | --- |
| N#C/C(=C\c1ccc(O)c(O)c1)C(=O)NCc1ccccc1 | 0.4 | 0.9 | 0.5 | 4.4 | -0.4 | 0.3 | -0.2 |
| O=C(O)/C=C/c1cc(CO)ccc1CO | 0.4 | 1 | 0 | 0.6 | 0.5 | 0 | 0.1 |
| C[C@@H](N)[C@H]1CC[C@H](C(=O)Nc2ccncc2)CC1 | 0.9 | 0.3 | -0.3 | 1.3 | 0 | 0.7 | 1 |
| Cc1cncc2cccc(S(=O)(=O)N3CCCNC[C@@H]3C)c12 | 0.6 | 7 | -0.2 | 2 | 1.1 | -0.4 | 2.9 |
| O=c1c(-c2ccc(F)cc2)c(-c2ccncc2)[nH]n1-c1ccc(Cl)cc1 | 0.8 | 1 | -1.2 | 0.2 |  | 0.1 | 0 |
| NC(=O)c1ccc(-c2nc(-c3ccc4c(c3)OCCO4)c(-c3ccccn3)[nH]2)cc1 | 0.7 | 0.1 | -0.1 | -0.3 | 0 | 0.3 | 0.3 |
| Cn1cc(C2=C(c3cn(CCCN)c4ccccc34)C(=O)NC2=O)c2ccccc21 | 0.9 | 1.8 | -0.1 | 4.6 | 2.3 | -0.5 | 3.7 |
| Nc1nccc(-c2c(-c3ccc(F)cc3)ncn2C2CCNCC2)n1 | 1.1 | 0.2 | -0.2 | 0.4 |  | 0.2 | 0.1 |
| O=C(O)Cc1ccc(O)c([N+](=O)[O-])c1 | 0.4 | 0.8 | -0.6 | -0.5 |  | 0.9 | -0.1 |
| O=C1C=C2C(=Nc3c2c2c(c4c3=NC3=C4CCC=C3)C=NC=2)CC1 | 1.1 | 2.3 | -0.3 | 2.6 |  | 2 | 2.4 |
| CCN(CC)CCNC(=O)c1c(C)[nH]c(/C=C2\C(=O)Nc3ccc(F)cc32)c1C | 6.8 | 1.6 | 2.9 | 8.3 |  | 2.3 | 5.2 |
| CN1CCC(Nc2ncc3ncnc(Nc4ccc(F)c(Cl)c4)c3n2)CC1 [FALNIDAMOL] |  | 0.3 | 0.1 |  |  | 0.5 | 1.4 |

Continued, values first:

| ΔTm [1] [°C] | ΔTm [2] [°C] | ΔTm [3] [°C] | ΔTm [4] [°C] | ΔTm [5] [°C] | ΔTm [6] [°C] | ΔTm [7] [°C] | Structure (SMILES) |
| --- | --- | --- | --- | --- | --- | --- | --- |
| -0.6 | 1 | -0.1 | -5.3 | 0.6 | 2.1 | 0.3 | CC(C)(C)c1cc(C=C2C(=O)C=CC2=O)cc(C(C)(C)C)c1O |
| 1.1 | 11.8 | -1.3 | 13.7 | 2.9 | 1.2 | 4.5 | CC(C)(C)c1nc2c3ccc(F)cc3c3c(=O)[nH]ccc3c2[nH]1 |
| -0.5 | 1 | -0.3 | 0.5 | 0.1 | -0.2 | -0.2 | COc1ccc(CNC(=O)Nc2ncc([N+](=O)[O-])s2)cc1 |
| -0.2 | 0.1 | 0.2 | 0.1 |  | -0.2 | 0 | O=C(O)c1cc(NCc2cc(O)ccc2O)ccc1O |
| -0.1 | 0.4 | 0.1 | 1.5 | -0.6 | -0.6 | 0.1 | Oc1cccc(-c2nc(N3CCOCC3)c3oc4ncccc4c3n2)c1 |
|  | 2.5 | 6.8 |  |  | 0 | -0.3 | Cc1nc(Nc2ncc(C(=O)Nc3c(C)cccc3Cl)s2)cc(N2CCN(CCO)CC2)n1 |
| -0.3 | -0.2 | 1 | 0.8 |  | -0.6 | -0.1 | Nc1n[nH]c2nnc(-c3c(-c4ccccc4)nn4ccccc34)cc12 |
| 0.1 | 8.9 | 1.5 | 8.9 | 3.8 | 2.8 | 2.3 | O=Nc1c(-c2c(O)[nH]c3ccccc23)[nH]c2ccccc12 |
|  | 0.4 | 4 |  |  | -0.4 | -0.4 | Clc1ccc(Nc2nnc(Cc3ccncc3)c3ccccc23)cc1 |
| 0.5 | 0 | -0.5 | 0.6 |  | 0.1 | 0.4 | COc1cc2ncnc(Nc3ccc(F)c(Cl)c3)c2cc1OCCCN1CCOCC1 |
| 0.6 | 0.4 | 2.5 | 0.6 |  | 1.9 | 0 | O=c1c(-c2ccc(O)cc2)coc2cc(O)cc(O)c12 |
| 1.6 | 6.2 | 0.2 | 6.1 |  | 2.5 | 0.5 | Cn1cc(/C=C2/C(=O)Nc3ccc(S(N)(=O)=O)cc32)c2ccccc21 |
| 0.4 | 0.2 | -0.2 | 1.3 |  | 0.3 | 0.8 | Cc1ccc(NC(=O)c2ccc(CN3CCN(C)CC3)cc2)cc1Nc1nccc(-c2cccnc2)n1 |
| -0.2 | -0.1 | -0.9 | -0.4 |  | -0.2 | 0.2 | COc1ccc(COc2ccc(Cc3cnc(N)nc3N)cc2OC)cc1 |
| 1 | 1.5 | -0.6 | 1.9 |  | 0 | 4 | O=C1Nc2cc(Br)ccc2/C1=C1/Nc2ccccc2/C1=N\O |
|  | 3.9 | 0 | 3.7 | 0.6 | -0.6 | 0.5 | COc1cc2ncnc(Nc3cccc(O)c3)c2cc1OC |
| 0.3 | -0.1 | 0 | 0.3 |  | -0.3 | 0.3 | C#Cc1cccc(Nc2ncnc3cc(OCCOC)c(OCCOC)cc23)c1 |
